From BindingDB's records for doi:10.1016/j.bmcl.2007.01.064 (Vertex Pharmaceuticals, 2007)

Target: T1, Disintegrin and metalloproteinase domain-containing protein 17 [215-477,S266A,N452Q] (Homo sapiens, UniProt P78536, N452Q/S266A)
T1 construct: 215-477
Experiment: TACE Inhibition Assay
Conditions: pH 7.5; 22 °C
Experimental: The compounds were tested for TACE inhibition using fluorescence resonance energy transfer (FRET) assay. TACE catalyzed cleavage of the substrate peptide liberates the fluoropore from the proximity of the adjacent quenching moiety, and an increase in fluorescence signal results.

T1 sequence (P78536 215-477 S266A/N452Q): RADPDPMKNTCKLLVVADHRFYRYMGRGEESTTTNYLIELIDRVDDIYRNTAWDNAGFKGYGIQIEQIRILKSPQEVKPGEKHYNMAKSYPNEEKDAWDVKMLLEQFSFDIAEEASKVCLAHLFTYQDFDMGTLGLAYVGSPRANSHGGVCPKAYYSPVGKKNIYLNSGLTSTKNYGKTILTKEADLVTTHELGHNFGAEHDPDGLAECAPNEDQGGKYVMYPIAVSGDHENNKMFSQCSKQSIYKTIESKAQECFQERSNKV

## CC#CCOc1ccc(S(=O)(=O)N(C)CCS)cc1 [4-(but-2-yn-1-yloxy)-N-methyl-N-(2-sulfanylethyl)benzene-1-sulfonamide]
  Ki: 56 nM
